Results taken from publication PMC11233931, “Remodeling tumor‐associated macrophage for anti‐cancer effects by rational design of irreversible inhibition of mitogen‐activated protein kinase‐activated protein kinase 2” (MedComm, 2024).

Legend:
Assay in all cases: Eurofins kinase selectivity profile against 380 other human recombinant kinases (Table S2)
Assay type in all cases: biochemical
[1] = target: T1, 380 human recombinant protein kinases (Homo sapiens, UniProt P53671); conditions: LIMK2(h), read-out: Inhibition rate
T1 construct: purchased Eurofins (Celle Lévescault)
Protocol: (§1) Subsequently, to ascertain whether the high potency of compound 11 was specific for MK2, an additional 380 human recombinant protein kinases were screened.
(§2) To assess the impact of various compounds on MK2 kinase activity, we utilized the ADP‐Glo Assay Kit (Promega) following the manufacturer's instructions. Luminescence measurements were taken using a SpectraMax Paradigm reader. The inhibition percentage was calculated using the following formula: ((specific signalDMSO control − specific signal inhibitor)/(specific signalDMSO control)) × 100%. The IC50 values were determined employing dose–response curve fitting via Prism (Graph Pad). Additionally, Eurofins company (Celle Lévescault) conducted the analysis on compound 11’s inhibitory activity against 380 other human recombinant kinases at various concentrations.

[2] = target: T2, 380 human recombinant protein kinases (Homo sapiens, UniProt P53350); conditions: Plk1(h), read-out: Inhibition rate
T2 construct: purchased Eurofins (Celle Lévescault)
Protocol: as §1, §2

[3] = target: T3, 380 human recombinant protein kinases (Homo sapiens, UniProt Q9Y6M4); conditions: CK1γ3(h), read-out: Inhibition rate
T3 construct: purchased Eurofins (Celle Lévescault)
Protocol: as §1, §2

[4] = target: T4, 380 human recombinant protein kinases (Homo sapiens, UniProt Q6DT37); conditions: MRCKγ(h), read-out: Inhibition rate
T4 construct: purchased Eurofins (Celle Lévescault)
Protocol: as §1, §2

[5] = target: T5, 380 human recombinant protein kinases (Homo sapiens, UniProt P45983); conditions: JNK1α1(h), read-out: Inhibition rate
T5 construct: purchased Eurofins (Celle Lévescault)
Protocol: as §1, §2

[6] = target: T6, 380 human recombinant protein kinases (Homo sapiens, UniProt Q5MAI5); conditions: CDKL4(h), read-out: Inhibition rate
T6 construct: purchased Eurofins (Celle Lévescault)
Protocol: as §1, §2

[7] = target: T7, 380 human recombinant protein kinases (Homo sapiens, UniProt O43293); conditions: ZIPK(h), read-out: Inhibition rate (%)
T7 construct: purchased Eurofins (Celle Lévescault)
Protocol: as §1, §2

[8] = target: T8, 380 human recombinant protein kinases (Homo sapiens, UniProt Q9UQB9); conditions: Aurora-C(h), read-out: Inhibition rate
T8 construct: purchased Eurofins (Celle Lévescault)
T8 sequence (Q9UQB9 1-309): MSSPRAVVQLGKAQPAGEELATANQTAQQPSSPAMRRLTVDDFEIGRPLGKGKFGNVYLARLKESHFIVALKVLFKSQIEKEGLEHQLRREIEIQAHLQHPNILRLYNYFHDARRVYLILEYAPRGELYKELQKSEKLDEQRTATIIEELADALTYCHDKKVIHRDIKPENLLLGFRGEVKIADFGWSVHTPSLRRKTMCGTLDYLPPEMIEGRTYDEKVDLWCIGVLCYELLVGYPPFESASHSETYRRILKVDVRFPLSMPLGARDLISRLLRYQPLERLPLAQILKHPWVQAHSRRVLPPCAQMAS
Protocol: as §1, §2

[9] = target: T9, 380 human recombinant protein kinases (Homo sapiens, UniProt P35968); conditions: KDR(h), read-out: Inhibition rate
T9 construct: purchased Eurofins (Celle Lévescault)
Protocol: as §1, §2

[10] = target: T10, 380 human recombinant protein kinases (Homo sapiens, UniProt P41240); conditions: CSK(h), read-out: Inhibition rate
T10 construct: purchased Eurofins (Celle Lévescault)
Protocol: as §1, §2

[11] = target: T11, 380 human recombinant protein kinases (Homo sapiens, UniProt P16234); conditions: PDGFRα(h), read-out: Inhibition rate
T11 construct: purchased Eurofins (Celle Lévescault)
Protocol: as §1, §2

T9 sequence (P35968 20-1356): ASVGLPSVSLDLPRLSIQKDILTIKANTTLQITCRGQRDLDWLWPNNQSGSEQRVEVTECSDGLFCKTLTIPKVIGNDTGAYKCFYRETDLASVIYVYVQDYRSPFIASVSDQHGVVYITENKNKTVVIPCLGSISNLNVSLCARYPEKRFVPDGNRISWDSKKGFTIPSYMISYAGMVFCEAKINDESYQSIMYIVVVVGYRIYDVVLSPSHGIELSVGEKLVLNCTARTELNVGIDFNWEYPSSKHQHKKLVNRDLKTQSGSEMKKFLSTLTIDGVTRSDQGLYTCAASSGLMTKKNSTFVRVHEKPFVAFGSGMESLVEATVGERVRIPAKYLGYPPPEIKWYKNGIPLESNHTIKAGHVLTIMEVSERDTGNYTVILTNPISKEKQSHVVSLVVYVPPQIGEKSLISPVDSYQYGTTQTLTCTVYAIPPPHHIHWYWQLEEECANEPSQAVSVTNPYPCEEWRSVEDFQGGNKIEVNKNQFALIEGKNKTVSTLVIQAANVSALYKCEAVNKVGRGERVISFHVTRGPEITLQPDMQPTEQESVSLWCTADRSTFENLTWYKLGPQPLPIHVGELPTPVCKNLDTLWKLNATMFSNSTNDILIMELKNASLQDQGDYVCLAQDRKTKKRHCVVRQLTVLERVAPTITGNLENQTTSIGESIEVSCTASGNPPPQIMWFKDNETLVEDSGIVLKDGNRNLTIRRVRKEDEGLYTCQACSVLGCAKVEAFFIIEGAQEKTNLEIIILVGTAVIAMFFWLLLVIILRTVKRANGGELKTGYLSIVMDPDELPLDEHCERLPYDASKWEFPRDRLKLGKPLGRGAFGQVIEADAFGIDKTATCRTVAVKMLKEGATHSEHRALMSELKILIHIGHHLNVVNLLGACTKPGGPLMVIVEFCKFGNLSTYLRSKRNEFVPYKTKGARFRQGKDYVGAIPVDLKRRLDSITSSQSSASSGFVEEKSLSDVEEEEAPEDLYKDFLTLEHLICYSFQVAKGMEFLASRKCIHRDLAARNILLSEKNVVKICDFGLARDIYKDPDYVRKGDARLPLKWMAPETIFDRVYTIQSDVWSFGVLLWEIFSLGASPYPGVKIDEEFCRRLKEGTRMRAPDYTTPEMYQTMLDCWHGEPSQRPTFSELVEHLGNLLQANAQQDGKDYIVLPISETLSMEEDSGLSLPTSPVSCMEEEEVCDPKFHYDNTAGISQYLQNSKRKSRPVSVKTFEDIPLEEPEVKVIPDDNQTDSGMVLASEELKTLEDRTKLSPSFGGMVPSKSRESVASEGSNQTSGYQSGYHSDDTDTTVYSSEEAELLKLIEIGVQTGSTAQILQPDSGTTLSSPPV
T11 sequence (P16234 24-1089): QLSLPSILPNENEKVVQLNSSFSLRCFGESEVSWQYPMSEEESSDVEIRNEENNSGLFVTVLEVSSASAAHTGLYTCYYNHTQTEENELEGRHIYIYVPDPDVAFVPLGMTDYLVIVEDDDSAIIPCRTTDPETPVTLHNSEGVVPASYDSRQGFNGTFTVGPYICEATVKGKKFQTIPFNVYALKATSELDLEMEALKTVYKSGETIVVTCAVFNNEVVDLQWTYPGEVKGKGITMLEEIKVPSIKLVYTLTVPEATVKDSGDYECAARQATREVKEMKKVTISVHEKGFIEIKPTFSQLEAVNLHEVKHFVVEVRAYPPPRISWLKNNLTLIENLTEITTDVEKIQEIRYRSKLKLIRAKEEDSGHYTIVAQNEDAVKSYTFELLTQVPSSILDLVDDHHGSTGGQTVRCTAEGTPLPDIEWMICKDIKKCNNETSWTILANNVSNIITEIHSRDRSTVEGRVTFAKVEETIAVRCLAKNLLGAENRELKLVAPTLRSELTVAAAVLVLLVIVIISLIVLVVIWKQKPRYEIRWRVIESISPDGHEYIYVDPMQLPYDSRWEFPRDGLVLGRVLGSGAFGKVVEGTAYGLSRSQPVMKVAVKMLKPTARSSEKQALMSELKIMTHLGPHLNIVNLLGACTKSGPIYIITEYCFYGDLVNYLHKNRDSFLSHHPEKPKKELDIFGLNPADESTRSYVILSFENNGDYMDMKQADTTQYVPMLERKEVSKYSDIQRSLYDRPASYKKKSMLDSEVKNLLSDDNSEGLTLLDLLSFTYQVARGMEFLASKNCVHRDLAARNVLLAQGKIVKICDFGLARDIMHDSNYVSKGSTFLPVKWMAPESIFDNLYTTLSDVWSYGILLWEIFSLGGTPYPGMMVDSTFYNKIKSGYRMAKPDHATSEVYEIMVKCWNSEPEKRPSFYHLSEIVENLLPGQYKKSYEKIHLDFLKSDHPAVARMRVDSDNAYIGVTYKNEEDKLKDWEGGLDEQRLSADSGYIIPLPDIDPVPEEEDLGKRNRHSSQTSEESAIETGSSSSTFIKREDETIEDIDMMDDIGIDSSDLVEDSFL
T7 sequence (O43293 whole entry): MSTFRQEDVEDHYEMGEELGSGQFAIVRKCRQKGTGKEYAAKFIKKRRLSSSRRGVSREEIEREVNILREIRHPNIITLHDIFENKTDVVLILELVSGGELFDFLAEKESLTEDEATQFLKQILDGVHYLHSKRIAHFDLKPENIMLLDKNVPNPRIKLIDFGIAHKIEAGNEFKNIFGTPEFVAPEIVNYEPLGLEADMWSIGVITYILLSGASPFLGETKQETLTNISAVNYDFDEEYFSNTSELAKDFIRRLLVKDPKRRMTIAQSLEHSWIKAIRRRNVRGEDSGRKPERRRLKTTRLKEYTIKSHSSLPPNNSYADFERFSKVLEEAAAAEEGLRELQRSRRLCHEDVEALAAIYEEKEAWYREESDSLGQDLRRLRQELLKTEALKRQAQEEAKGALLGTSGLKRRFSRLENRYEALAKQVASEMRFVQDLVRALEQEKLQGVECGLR
T10 sequence (P41240 whole entry): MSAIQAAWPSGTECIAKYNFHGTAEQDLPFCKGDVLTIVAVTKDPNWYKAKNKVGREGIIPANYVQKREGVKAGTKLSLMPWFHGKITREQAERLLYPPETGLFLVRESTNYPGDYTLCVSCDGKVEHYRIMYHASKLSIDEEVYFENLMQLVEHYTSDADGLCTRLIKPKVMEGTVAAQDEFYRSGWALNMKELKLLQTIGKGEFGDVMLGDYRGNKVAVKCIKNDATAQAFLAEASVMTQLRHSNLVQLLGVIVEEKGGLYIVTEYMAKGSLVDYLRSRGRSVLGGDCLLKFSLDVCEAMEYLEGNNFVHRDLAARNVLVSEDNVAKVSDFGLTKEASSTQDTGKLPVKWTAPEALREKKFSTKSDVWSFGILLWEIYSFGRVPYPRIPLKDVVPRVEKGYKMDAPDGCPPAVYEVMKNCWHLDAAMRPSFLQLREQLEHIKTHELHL
T5 sequence (P45983 whole entry): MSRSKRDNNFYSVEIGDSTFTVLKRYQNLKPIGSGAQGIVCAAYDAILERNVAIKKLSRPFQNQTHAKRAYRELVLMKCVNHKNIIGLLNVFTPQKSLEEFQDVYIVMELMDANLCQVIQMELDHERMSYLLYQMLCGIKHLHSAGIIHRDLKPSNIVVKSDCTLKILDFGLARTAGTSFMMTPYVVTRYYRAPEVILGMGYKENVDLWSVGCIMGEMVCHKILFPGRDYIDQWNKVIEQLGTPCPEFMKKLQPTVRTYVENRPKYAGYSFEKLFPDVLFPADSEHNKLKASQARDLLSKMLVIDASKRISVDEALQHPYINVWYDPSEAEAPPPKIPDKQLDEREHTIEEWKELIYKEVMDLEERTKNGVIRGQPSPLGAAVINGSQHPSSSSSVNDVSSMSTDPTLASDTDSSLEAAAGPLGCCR
T6 sequence (Q5MAI5 whole entry): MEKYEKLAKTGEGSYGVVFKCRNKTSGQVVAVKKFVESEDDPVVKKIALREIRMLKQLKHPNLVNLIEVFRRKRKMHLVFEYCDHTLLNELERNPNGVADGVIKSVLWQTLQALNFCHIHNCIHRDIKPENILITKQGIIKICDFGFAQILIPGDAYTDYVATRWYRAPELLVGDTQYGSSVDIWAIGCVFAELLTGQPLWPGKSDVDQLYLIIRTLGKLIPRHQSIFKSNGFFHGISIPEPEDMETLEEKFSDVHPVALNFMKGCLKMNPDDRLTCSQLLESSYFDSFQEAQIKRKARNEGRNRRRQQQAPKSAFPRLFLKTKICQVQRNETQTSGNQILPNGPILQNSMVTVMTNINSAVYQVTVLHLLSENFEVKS
T3 sequence (Q9Y6M4 whole entry): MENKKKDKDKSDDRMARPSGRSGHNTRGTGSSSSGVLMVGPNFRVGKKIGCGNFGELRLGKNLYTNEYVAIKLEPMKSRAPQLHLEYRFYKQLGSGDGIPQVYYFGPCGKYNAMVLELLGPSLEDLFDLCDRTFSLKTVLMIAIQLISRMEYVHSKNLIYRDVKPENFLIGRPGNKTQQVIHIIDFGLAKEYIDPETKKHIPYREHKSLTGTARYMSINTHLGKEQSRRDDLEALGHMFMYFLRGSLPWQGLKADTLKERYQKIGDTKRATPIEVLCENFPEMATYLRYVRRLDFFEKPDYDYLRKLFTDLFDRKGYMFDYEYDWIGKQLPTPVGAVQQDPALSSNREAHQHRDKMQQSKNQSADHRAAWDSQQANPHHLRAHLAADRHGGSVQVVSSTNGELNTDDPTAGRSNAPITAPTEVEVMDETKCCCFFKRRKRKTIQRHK

## C=CC(=O)Nc1cc(-c2cc(-c3cc4c([nH]3)CCNC4=O)ccn2)ccc1OC(F)(F)F [compound 11]
[1]; 10 nM
  inhibition at 0.01 µM: -9%
[1]; 100 nM
  inhibition at 0.1 µM: -8%
[1]; 1000 nM
  inhibition at 1 µM: -1%
[2]; 10 nM
  inhibition at 0.01 µM: 13%
[2]; 100 nM
  inhibition at 0.1 µM: 15%
[2]; 1000 nM
  inhibition at 1 µM: 13%
[3]; 10 nM
  inhibition at 0.01 µM: -13%
[3]; 100 nM
  inhibition at 0.1 µM: 15%
[3]; 1000 nM
  inhibition at 1 µM: 67%
[4]; 10 nM
  inhibition at 0.01 µM: -13%
[4]; 100 nM
  inhibition at 0.1 µM: 2%
[4]; 1000 nM
  inhibition at 1 µM: 12%
[5]; 10 nM
  inhibition at 0.01 µM: 2%
[5]; 100 nM
  inhibition at 0.1 µM: 4%
[5]; 1000 nM
  inhibition at 1 µM: 21%
[6]; 10 nM
  inhibition at 0.01 µM: 50%
[6]; 100 nM
  inhibition at 0.1 µM: 83%
[6]; 1000 nM
  inhibition at 1 µM: 93%
[7]; 10 nM
  inhibition at 0.01 µM: 4%
[7]; 100 nM
  inhibition at 0.1 µM: 8%
[7]; 1000 nM
  inhibition at 1 µM: 15%
[8]; 10 nM
  inhibition at 0.01 µM: 2%
[8]; 100 nM
  inhibition at 0.1 µM: -5%
[8]; 1000 nM
  inhibition at 1 µM: 6%
[9]; 10 nM
  inhibition at 0.01 µM: 4%
[9]; 100 nM
  inhibition at 0.1 µM: 5%
[9]; 1000 nM
  inhibition at 1 µM: 31%
[10]; 10 nM
  inhibition at 0.01 µM: -2%
[10]; 100 nM
  inhibition at 0.1 µM: -1%
[10]; 1000 nM
  inhibition at 1 µM: -13%
[11]; 10 nM
  inhibition at 0.01 µM: -5%
[11]; 100 nM
  inhibition at 0.1 µM: -3%
[11]; 1000 nM
  inhibition at 1 µM: -2%
